Measured values reported in patent US20240000977A1, “METHODS AND KITS FOR DIAGNOSING AND TREATING CANCERS” (Baruch S. Blumberg Institute, priority 2020, published 2024).

Assays:
[1] = tested on: H3K36me3-deficient tumor xenografts; settings: cited from earlier work
SETD2−/− cells = settings: cited from earlier work
DACH1^−/− 3T3 cells = experiment: BrdU / propidium iodide flow cytometry of S-phase cells after WEE1 inhibition; format: cell-based; settings: 24 h
Description: (§1) DACH1 deficiency was determined to promote accumulation of non-proliferative S-phase cells by WEE1 kinase inhibitors. DACH1^+/+ and DACH1^−/− 3T3 cells were treated for 24 h with Adavosertib at 10 μM, a small molecule inhibitor of the tyrosine kinase WEE1, or with DMSO, as the control (see FIGS. 18A and 18B). Prior to harvest, the 3T3 cells were pulsed with 20 μM BrdU for 30 min at a temperature of 37° C. to enable detection of cells with active DNA replication. After harvesting the 3T3 cells, the 3T3 cells were stained with propidium iodide (DNA content) and an anti-BrdU antibody (Abcam). […] Representative FACS plots are shown (see FIGS. 19A-19E). […] Data is shown as mean±SEM for 4 separate experiments.

DACH1^+/+ 3T3 cells = experiment: as above; format: cell-based; settings: Wt (DACH1^+/+) 3T3 cells, Adavosertib 10 μM, 24 h, 20 μM BrdU pulse 30 min; mean of 4 experiments
Description: as §1

L1210 leukemia = settings: murine L1210 leukemia, single agent; cited from earlier work

Molecule	effect on tumor xenografts [1]	sensitivity of cells (SETD2−/− cells)	BrdU incorporation upon inhibition of WEE1 kinase (DACH1^−/− 3T3 cells; 10 μM)	non-proliferating S-phase population (DACH1^−/− 3T3 cells; Adavosertib 10 μM, 20 μM BrdU pulse 30 min, mean of 4 experiments)	non-proliferating S-phase population (DACH1^+/+ 3T3 cells)	antileukemic effects, agent given alone (L1210 leukemia)
C=CCn1c(=O)c2cnc(Nc3ccc(N4CCN(C)CC4)cc3)nc2n1-c1cccc(C(C)(C)O)n1 [Adavosertib]	regresses	hypersensitive	failed to incorporate the BrdU	38.3%	13.8%	
IL-12: IL-12 proteins, cytokine used in chemo-immunotherapy						moderate antileukemic effects
